Measurements as given in ChEMBL document CHEMBL1133613, “1-[4-(3-Phenylalkyl)phenyl]-2-aminopropanes as 5-HT(2A) partial agonists” (J Med Chem, 2000).

How the values were obtained:
[1] = target: T1, 5-hydroxytryptamine receptor 2C (Rattus norvegicus, UniProt P08909); assay: Displacement of [3H]mesulergine from A9 cells stably expressing rat 5-hydroxytryptamine 2C receptor; format: cell-based
T1 sequence (P08909 whole entry): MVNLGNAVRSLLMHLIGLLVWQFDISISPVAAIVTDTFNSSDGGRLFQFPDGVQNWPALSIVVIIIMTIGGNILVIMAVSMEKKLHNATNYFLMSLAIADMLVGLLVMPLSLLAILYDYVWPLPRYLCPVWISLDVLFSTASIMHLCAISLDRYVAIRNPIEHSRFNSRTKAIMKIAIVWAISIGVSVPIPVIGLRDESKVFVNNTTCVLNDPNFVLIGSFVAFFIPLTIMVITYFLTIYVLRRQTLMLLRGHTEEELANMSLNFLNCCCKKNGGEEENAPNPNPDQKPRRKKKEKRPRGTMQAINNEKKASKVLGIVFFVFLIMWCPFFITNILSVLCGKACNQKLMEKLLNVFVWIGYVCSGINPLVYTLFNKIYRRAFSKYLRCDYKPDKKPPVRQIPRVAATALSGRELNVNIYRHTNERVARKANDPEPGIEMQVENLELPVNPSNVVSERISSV

[2] = target: 5-hydroxytryptamine receptor 2A (Rattus norvegicus, UniProt P14842); assay: Displacement of [3H]ketanserin from NIH3T3 cells stably expressing rat 5-hydroxytryptamine 2A receptor; format: cell-based
[3] = target: Serotonin receptor 2a and 2c (5HT2A and 5HT2C) (Rattus norvegicus) (UniProt P08909+P14842); assay: Relative affinities for rat 5-HT2C receptors and 5-HT2A receptors; format: protein assay
Sequence of Serotonin receptor 2a and 2c (5HT2A and 5HT2C) (Rattus norvegicus) (P14842 whole entry, looked up, one chain of several): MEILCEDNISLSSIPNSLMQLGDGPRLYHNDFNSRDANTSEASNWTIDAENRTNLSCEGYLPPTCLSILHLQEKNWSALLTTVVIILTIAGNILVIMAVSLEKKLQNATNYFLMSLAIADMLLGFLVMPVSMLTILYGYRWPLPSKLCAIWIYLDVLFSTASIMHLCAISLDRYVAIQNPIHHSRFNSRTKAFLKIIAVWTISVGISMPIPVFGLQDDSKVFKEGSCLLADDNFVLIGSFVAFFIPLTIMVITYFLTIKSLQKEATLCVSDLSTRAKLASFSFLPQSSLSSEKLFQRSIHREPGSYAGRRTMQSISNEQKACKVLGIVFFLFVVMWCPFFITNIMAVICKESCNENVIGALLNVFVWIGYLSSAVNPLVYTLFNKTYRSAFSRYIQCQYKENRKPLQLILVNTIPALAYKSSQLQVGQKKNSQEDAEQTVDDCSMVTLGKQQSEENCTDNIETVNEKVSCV

Sequence of 5-hydroxytryptamine receptor 2A (P14842 whole entry): as the sequence (P14842 whole entry, looked up, one chain of several) above

Row | Structure (SMILES) | Ki [1] [nM] | Ki [2] [nM] | Selectivity [3]
1 | COc1cccc(OC)c1CC(C)N (configuration not stated) | > 10000 | > 10000 | 
2 | COc1cc(CCCc2ccccc2)cc(OC)c1CC(C)N (configuration not stated) | 39 | 3 | 13
3 | COc1cc(CCc2ccccc2)c(OC)cc1CCN | 76 | 37 | 2
4 | COc1c(CCCc2ccccc2)ccc(CC(C)N)c1OC (configuration not stated) | 79 | 4 | 19.8
5 | COc1cc(CC(C)N)c(OC)cc1CCCc1ccc(Cl)cc1 (configuration not stated) | 16 | 12 | 1.3
6 | COc1ccccc1CC(C)N (configuration not stated) | > 10000 | > 10000 | 
7 | COc1cc(CCN)c(OC)cc1Br |  | 16 | 
8 | COc1cc(CC(C)N)cc(OC)c1CCCc1ccccc1 (configuration not stated) | 40 | 4 | 10
9 | COc1cccc(CC(C)N)c1OC (configuration not stated) | > 10000 | 4280 | 
10 | COc1cc(CC(C)N)ccc1CCCc1ccccc1 (configuration not stated) | 135 | 17 | 7.9
11 | COc1ccc(OC)c(CC(C)N)c1 (configuration not stated) | > 10000 | 4720 | 
12 | COc1cc(C[C@@H](C)N)cc(OC)c1 | > 10000 | > 10000 | 
13 | COc1cc(CCCc2ccccc2)ccc1CC(C)N (configuration not stated) | 89 | 8 | 11.1
14 | COc1cc(CC(C)N)c(OC)cc1CCCCc1ccccc1 (configuration not stated) | 6 | 8 | 0.8
15 | COc1cc(CC(C)N)cc(OC)c1Br (configuration not stated) | 570 | 210 | 
16 | CC(N)Cc1ccc(CCCc2ccccc2)cc1 (configuration not stated) | 530 | 78 | 6.8
17 | COc1cc(CC(C)N)c(OC)cc1CCCc1ccccc1 (configuration not stated) | 50 | 30 | 1.7
18 | COc1ccc(OC)c(CCN)c1 | 5520 | 3000 | 
19 | COc1cccc(CC(C)N)c1 (configuration not stated) | > 10000 | > 10000 | 
20 | NCCc1ccc(CCCc2ccccc2)cc1 | 525 | 60 | 8.9
21 | COc1cc(CC(C)N)c(OC)cc1CCc1ccccc1 (configuration not stated) | 140 | 95 | 1.5
22 | COc1cc(CCCc2ccccc2)c(OC)cc1CCN | 28 | 150 | 0.2
23 | COc1cc(CCCCc2ccccc2)c(OC)cc1CCN | 25 | 115 | 0.2
24 | COc1ccc(CCCc2cc(OC)c(CC(C)N)cc2OC)cc1 (configuration not stated) | 24 | 28 | 0.9
